Results on seven compounds are retold here after patent US20260285853A1, “COMPOUNDS AND METHODS FOR MODULATING SPLICING” (REMIX THERAPEUTICS INC., priority 2023, published 2026).

As usually defined, the GI50 is the concentration that inhibits growth by half. The AC50 is the midpoint of the concentration-response curve, whichever way the signal moves. The term IC50 denotes the midpoint of a concentration-inhibition curve.

A value given as a limit tells only on which side of the number the result lay.

Common to all, as to assay type: cell-based
In assay [1] the test system is SH-SY5Y (human neuroblastoma) cells. Briefly: Cell viability, Cell Titer Glo 2.0 assay. The following applies: read-out: Viability SHSY5Y.3 GI50. The method, boiled down:
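SH-SY5Y cells were exposed to serially diluted compounds in IMDM with 10% FBS and 0.1% DMSO for 72 hours at 37° C., 5% CO2. Viability was measured by CellTiter-Glo 2.0 luminescence, with medium-only wells as blank.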
(In general: In ATP-based viability assays light output follows the ATP content of the culture.)

For assay [2], the system named is MYB mRNA. Nature of the assay: Splicing RT-qPCR assay, canonical (CJ) and alternative (AJ) junction mRNA, K562 cells. The following applies: Homo sapiens, K562.3 cells, 24 hours; for AC50: read-out: MYB AJ (AC50, increase in AJ mRNA); for IC50: read-out: MYB CJ (IC50, decrease in CJ mRNA). The method, boiled down: (§1)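 K562 cells in IMDM/10% FBS treated 24 h at 37 °C with an 11-point 3-fold dilution (top 10 uM, ≤0.25% DMSO). Lysates went to one-step RT-qPCR for CJ and AJ junctions, normalized to GAPDH or GUSB; ΔΔCt vs DMSO converted to RQ, then to percentage response using fixed ΔCt windows.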

Assay [3] concerns HTT mRNA. The description is as above. The following applies: Homo sapiens, K562.3 cells, 24 hours; for AC50: read-out: HTT AJ (AC50, increase in AJ mRNA); for IC50: read-out: HTT CJ (IC50, decrease in CJ mRNA). An outline of the steps:
as §1

Assay [4] has as its system MYB mRNA. Briefly: Gene panel canonical junction qPCR assay, decrease in CJ mRNA, Table 3. The following applies: decrease in canonical junction (CJ) mRNA, gene panel qPCR, Table 3. The method, boiled down:
(§2)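 Canonical exon-junction (CJ) transcript measured by 5′ nuclease RT-qPCR, normalized to GAPDH, GUSB or PPIA and to DMSO control (2^(−ΔΔCt)). A673 or K562 cells treated 24 h at 37° C with an 11-point 3-fold dilution series, top 10 uM, DMSO ≤0.25%. IC50 from 4-parameter logistic fit of percentage CJ decrease.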
A general note: Real-time PCR tracks product formation cycle by cycle.

For assay [5], the system named is HTT mRNA. Described as above. The conditions noted are these: decrease in canonical junction (CJ) mRNA, gene panel qPCR, Table 3. An outline of the steps: as §2
In another assay the test system is SMN2 mRNA. The assay is described as above. The following applies: decrease in canonical junction (CJ) mRNA, gene panel qPCR, Table 3. An outline of the steps:
as §2

The subject of assay [6] is MYB mRNA. Nature of the assay: Splicing RT-qPCR assay (THP), Table 2A. The following applies: Table 2A (THP); for AC50: AJ mRNA increase, read-out: MYB AJ (increase in alternative junction mRNA, AC50); for IC50: CJ mRNA decrease, read-out: MYB CJ (decrease in canonical junction mRNA, IC50).

Take `CCNC1CCN(c2cc(F)c(C(=O)Nc3cn4cc(C)nc4c(F)c3OC)c3[nH]ncc23)CC1` [Compound 173, 4-[4-(ethylamino)-1-piperidyl]-6-fluoro-N-(8-fluoro-7-methoxy-2-methyl-imidazo[1,2-a]pyridin-6-yl)-1H-indazole-7-carboxamide]: the GI50 in assay [1] is below 100 nM. The values for the AC50 with MYB mRNA [2], in the assay on HTT mRNA [3] and with MYB mRNA [6] were below 100 nM, 1000 to 10000 nM and below 100 nM, respectively. The IC50 was below 100 nM in the assay with MYB mRNA [2]; 1000 to 10000 nM in the assay with HTT mRNA [3]; below 100 nM in the assay with MYB mRNA [4]; 1000 to 10000 nM in the assay with HTT mRNA [5]; below 100 nM with SMN2 mRNA; below 100 nM in the assay with MYB mRNA [6].
For the compound `CCNC1CCN(c2cc(F)c(C(=O)Nc3cc(F)c4nc(C)cn4c3)c3[nH]ncc23)CC1` [Compound 174, 4-[4-(ethylamino)-1-piperidyl]-6-fluoro-N-(8-fluoro-2-methyl-imidazo-[1,2-a]pyridin-6-yl)-1H-indazole-7-carboxamide], in assay [1], the GI50 was 100 to 1000 nM. For the same compound, the AC50 in the assay on MYB mRNA [2] was 100 to 1000 nM; in the assay on HTT mRNA [3], 1000 to 10000 nM; in the assay on MYB mRNA [6], below 100 nM. For the same compound, the IC50 in the assay on MYB mRNA [2] is 100 to 1000 nM; in the assay with HTT mRNA [3], 1000 to 10000 nM; in the assay with MYB mRNA [4], 100 to 1000 nM; in the assay on HTT mRNA [5] it was 1000 to 10000 nM; in the assay on SMN2 mRNA, below 100 nM; in the assay on MYB mRNA [6] it was 100 to 1000 nM.
For `COc1c(NC(=O)c2ccc(N3CCNCC3)c3cc[nH]c23)cn2cc(C)nc2c1F` [Compound 212, N-(8-fluoro-7-methoxy-2-methyl-imidazo-[1,2-a]pyridin-6-yl)-4-piperazin-1-yl-1H-indole-7-carboxamide], the GI50 in assay [1] lay within 1000 to 10000 nM. For the same compound, the AC50 in the assay on MYB mRNA [2], in the assay with HTT mRNA [3] and in the assay on MYB mRNA [6] was above 10000 nM each time. The IC50 was 1000 to 10000 nM in the assay on MYB mRNA [2]; above 10000 nM in the assay on HTT mRNA [3]; 1000 to 10000 nM in the assay with MYB mRNA [4]; above 10000 nM in the assay with HTT mRNA [5]; 1000 to 10000 nM in the assay on SMN2 mRNA; above 10000 nM in the assay on MYB mRNA [6].
As for `Cc1cn2cc(NC(=O)c3ccc(N4CCNCC4)c4cc[nH]c34)cc(F)c2n1` [Compound 213, N-(8-fluoro-2-methyl-imidazo[1,2-a]-pyridin-6-yl)-4-piperazin-1-yl-1H-indole-7-carboxamide], in assay [1], the GI50 fell in the range of 1000 to 10000 nM. Also, the AC50 with MYB mRNA [2], with HTT mRNA [3] and in the assay on MYB mRNA [6] was above 10000 nM throughout. Also, the IC50 in the assay with MYB mRNA [2] is above 10000 nM; with HTT mRNA [3], 1000 to 10000 nM; in the assay with MYB mRNA [4], above 10000 nM; in the assay with HTT mRNA [5] it was 1000 to 10000 nM; with SMN2 mRNA, above 10000 nM; in the assay with MYB mRNA [6], 1000 to 10000 nM.
For `Cc1cn2cc(NC(=O)c3ccc(N4CCNCC4)c4nonc34)cc(F)c2n1` [Compound 263, N-(8-fluoro-2-methyl-imidazo[1,2-a]pyridin-6-yl)-4-piperazin-1-yl-2,1,3-benzoxadiazole-7-carboxamide], the GI50 in assay [1] fell in the range of 1000 to 10000 nM. Further, the AC50 with MYB mRNA [2] lay within 100 to 1000 nM; in the assay with HTT mRNA [3], 1000 to 10000 nM; in the assay with MYB mRNA [6], 100 to 1000 nM. Also, the IC50 in the assay with MYB mRNA [2] was 100 to 1000 nM; in the assay on HTT mRNA [3], 100 to 1000 nM; in the assay with MYB mRNA [4] it was 100 to 1000 nM; in the assay with HTT mRNA [5], 100 to 1000 nM; in the assay with SMN2 mRNA it was below 100 nM; in the assay on MYB mRNA [6], 100 to 1000 nM.
In the case of `Cc1cn2cc(C(=O)Nc3c(F)cc(N4CCNCC4)c4cn[nH]c34)cc(F)c2n1` [Compound 267], the GI50 in assay [1] was above 10000 nM. The AC50 in the assay with MYB mRNA [2], with HTT mRNA [3] and in the assay with MYB mRNA [6] was above 10000 nM in each case. In addition, the IC50 in the assay on MYB mRNA [2], in the assay with HTT mRNA [3], with MYB mRNA [4], in the assay with HTT mRNA [5], in the assay on SMN2 mRNA and in the assay with MYB mRNA [6] was above 10000 nM each time.
As to `COC1CC(N[C@H]2CCN(c3ccc(C(=O)Nc4cc(F)c5nc(C)cn5c4)c4nn(C)cc34)C2)C1` (stereo partly drawn) [Compound 268, N-(8-fluoro-2-methyl-imidazo[1,2-a]pyridin-6-yl)-4-[(3S)-3-[(3-methoxy-cyclobutyl)amino]pyrrolidin-1-yl]-2-methyl-indazole-7-carboxamide], in assay [1], the GI50 fell in the range of 100 to 1000 nM. Besides, the concentration at half-maximal activity (AC50) is 100 to 1000 nM in the assay with MYB mRNA [2], 1000 to 10000 nM in the assay with HTT mRNA [3] and below 100 nM in the assay on MYB mRNA [6]. The IC50 in the assay on MYB mRNA [2] was below 100 nM; in the assay with HTT mRNA [3], 100 to 1000 nM; with MYB mRNA [4], below 100 nM; in the assay on HTT mRNA [5] it was 100 to 1000 nM; in the assay on SMN2 mRNA, below 100 nM; with MYB mRNA [6], below 100 nM.
